In PubChem BioAssay AID248 (DTP/NCI, 2004):
Inconclusive results and toxic doses are left out.

Test system: L1210 leukemia ip in BDF1 mice, survival T/C
Assay: NCI In Vivo Anticancer Drug Screen. Data for tumor model L1210 Leukemia (intraperitoneal) in B6D2F1 (BDF1) mice
Settings: endpoint: mean survival time, higher = longer survival
Outline: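 In this screen, tumor-bearing mice given compound are compared to those given vehicle, and their survival values are reported as a treated-to-control quotient.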

[1] = dose: 100.0 mg/kg/injection, schedule: Q01DX001 (ip), vehicle: saline
[2] = dose: 200.0 mg/kg/injection, schedule: Q01DX001 (ip), vehicle: saline

Structure (SMILES): COC(=O)c1[nH]cnc1/N=N/N(C)C
- T/C (dose: 6.75 mg/kg/injection, schedule: Q01DX009 (ip), vehicle: saline): 119 % of control
- T/C (dose: 9.3 mg/kg/injection, schedule: Q01DX015 (ip), vehicle: saline): 113 % of control
- T/C (dose: 11.25 mg/kg/injection, schedule: Q01DX Z (ip), vehicle: saline): 124 % of control
- T/C (dose: 22.25 mg/kg/injection, schedule: Q04DX003 (ip), vehicle: saline): 115 % of control
- T/C (dose: 27.0 mg/kg/injection, schedule: Q01DX009 (ip), vehicle: saline): 150 % of control
- T/C (dose: 31.0 mg/kg/injection, schedule: Q01DX Z (ip), vehicle: saline): 171 % of control
- T/C (dose: 44.5 mg/kg/injection, schedule: Q04DX003 (ip), vehicle: saline): 120 % of control
- T/C (dose: 46.0 mg/kg/injection, schedule: Q01DX Z (ip), vehicle: saline): 160 % of control
- T/C (dose: 54.0 mg/kg/injection, schedule: Q01DX015 (ip), vehicle: saline): 164 % of control
- T/C (dose: 57.5 mg/kg/injection, schedule: Q01DX001 (ip), vehicle: saline): 114 % of control
- T/C (dose: 62.0 mg/kg/injection, schedule: Q01DX Z (ip), vehicle: saline): 121 % of control
- T/C (dose: 88.0 mg/kg/injection, schedule: Q01DX001 (ip), vehicle: saline): 112 % of control
- T/C (dose: 88.8 mg/kg/injection, schedule: Q01DX001 (ip), vehicle: saline): 124 % of control
- T/C (dose: 90.0 mg/kg/injection, schedule: Q01DX015 (ip), vehicle: saline): 114 % of control
- T/C [1]: 124 % of control
- T/C (dose: 115.0 mg/kg/injection, schedule: Q01DX001 (ip), vehicle: saline): 114 % of control
- T/C (dose: 133.0 mg/kg/injection, schedule: Q01DX001 (ip), vehicle: saline): 115 % of control
- T/C [2]: 121 % of control
- T/C (dose: 231.0 mg/kg/injection, schedule: Q01DX001 (ip), vehicle: saline): 123 % of control

Structure (SMILES): Nc1nnnn1C(=O)NCCCl
- T/C (dose: 100.0 mg/kg/injection, schedule: Q01DX001 (ip), vehicle: Klucel (hydroxypropylcellulose) (HPC)): 111 % of control
- T/C (dose: 200.0 mg/kg/injection, schedule: Q01DX001 (ip), vehicle: Klucel (hydroxypropylcellulose) (HPC)): 97 % of control
- T/C (dose: 400.0 mg/kg/injection, schedule: Q01DX001 (ip), vehicle: Klucel (hydroxypropylcellulose) (HPC)): 94 % of control

Structure (SMILES): COC(=O)/C=C(\C)CCC1OC1(C)C (centres undefined)
- T/C [1]: 105 % of control
- T/C (dose: 100.0 mg/kg/injection, schedule: Q04DX003 (ip), vehicle: acetone): 95 % of control
- T/C [2]: 100 % of control
- T/C (dose: 200.0 mg/kg/injection, schedule: Q04DX003 (ip), vehicle: acetone): 108 % of control
- T/C (dose: 400.0 mg/kg/injection, schedule: Q01DX001 (ip), vehicle: saline): 94 % of control
- T/C (dose: 400.0 mg/kg/injection, schedule: Q04DX003 (ip), vehicle: acetone): 103 % of control

Structure (SMILES): CO/N=C(/C)C1(O)Cc2c(O)c3c(c(O)c2C(OC2CC(N)C(O)C(C)O2)C1)C(=O)c1c(OC)cccc1C3=O (centres undefined)
- T/C (dose: 1.0 mg/kg/injection, schedule: Q01DX009 (ip), vehicle: water): 109 % of control
- T/C (dose: 2.0 mg/kg/injection, schedule: Q01DX009 (ip), vehicle: water): 109 % of control
- T/C (dose: 2.0 mg/kg/injection, schedule: Q04DX003 (ip), vehicle: water): 101 % of control
- T/C (dose: 3.12 mg/kg/injection, schedule: Q01DX009 (ip), vehicle: saline with Tween-80): 111 % of control
- T/C (dose: 4.0 mg/kg/injection, schedule: Q01DX009 (ip), vehicle: water): 108 % of control
- T/C (dose: 4.0 mg/kg/injection, schedule: Q04DX003 (ip), vehicle: water): 100 % of control
- T/C (dose: 6.25 mg/kg/injection, schedule: Q01DX009 (ip), vehicle: saline with Tween-80): 106 % of control
- T/C (dose: 8.0 mg/kg/injection, schedule: Q01DX009 (ip), vehicle: water): 106 % of control
- T/C (dose: 8.0 mg/kg/injection, schedule: Q04DX003 (ip), vehicle: water): 101 % of control
- T/C (dose: 12.5 mg/kg/injection, schedule: Q01DX009 (ip), vehicle: saline with Tween-80): 106 % of control
- T/C (dose: 12.5 mg/kg/injection, schedule: Q04DX003 (ip), vehicle: saline): 95 % of control
- T/C (dose: 125.0 micrograms/kg/injection, schedule: Q04DX003 (ip), vehicle: water): 100 % of control
- T/C (dose: 250.0 micrograms/kg/injection, schedule: Q04DX003 (ip), vehicle: water): 101 % of control
- T/C (dose: 500.0 micrograms/kg/injection, schedule: Q04DX003 (ip), vehicle: water): 97 % of control
- T/C (dose: 1000.0 micrograms/kg/injection, schedule: Q04DX003 (ip), vehicle: water): 105 % of control
- T/C (dose: 2000.0 micrograms/kg/injection, schedule: Q04DX003 (ip), vehicle: water): 102 % of control
